From patent publication US11780893B2, “Kv1.3 blockers” (Zealand Pharma A/S, priority 2019, dated 2023)
Bridge positions count the residues as written; N and C are the ends. Square brackets hold non-standard residues; d marks the D form. Peptide text beside a SMILES is read from it. Nle = CCCC[C@H](N)C(=O)O

Experiments:
[1] = target: T1, human Kv1.3 voltage-gated K+ channel (Homo sapiens, UniProt P22001); assay: cell-based; conditions: inhibition of thallium flux, CHO-DUKX cells with human Kv1.3; read-out: IC50
T1 construct: host or cells: CHO-DUKX

[2] = target: T2, Kv1.3 (Homo sapiens, UniProt P22001); assay: cell-based; conditions: CHO cells, whole-cell patch clamp; read-out: Potency IC50 (nM) Kv1.3
T2 construct: expressed in transfected cells; host or cells: Chinese Hamster Ovary (CHO)

[3] = target: Rat whole blood (Rattus norvegicus, UniProt P15384)
[4] = target: T3, Kv1.2 (Homo sapiens, UniProt P16389); assay: cell-based; conditions: CHO cells, whole-cell patch clamp; read-out: Potency IC50 (nM) Kv1.2
T3 construct: expressed in transfected cells; host or cells: Chinese Hamster Ovary (CHO)

[5] = target: T4, Kv1.6 (Homo sapiens, UniProt P17658); assay: cell-based; conditions: CHO cells, whole-cell patch clamp; read-out: Potency IC50 (nM) Kv1.6
T4 construct: expressed in transfected cells; host or cells: Chinese Hamster Ovary (CHO)
T4 sequence (P17658 whole entry): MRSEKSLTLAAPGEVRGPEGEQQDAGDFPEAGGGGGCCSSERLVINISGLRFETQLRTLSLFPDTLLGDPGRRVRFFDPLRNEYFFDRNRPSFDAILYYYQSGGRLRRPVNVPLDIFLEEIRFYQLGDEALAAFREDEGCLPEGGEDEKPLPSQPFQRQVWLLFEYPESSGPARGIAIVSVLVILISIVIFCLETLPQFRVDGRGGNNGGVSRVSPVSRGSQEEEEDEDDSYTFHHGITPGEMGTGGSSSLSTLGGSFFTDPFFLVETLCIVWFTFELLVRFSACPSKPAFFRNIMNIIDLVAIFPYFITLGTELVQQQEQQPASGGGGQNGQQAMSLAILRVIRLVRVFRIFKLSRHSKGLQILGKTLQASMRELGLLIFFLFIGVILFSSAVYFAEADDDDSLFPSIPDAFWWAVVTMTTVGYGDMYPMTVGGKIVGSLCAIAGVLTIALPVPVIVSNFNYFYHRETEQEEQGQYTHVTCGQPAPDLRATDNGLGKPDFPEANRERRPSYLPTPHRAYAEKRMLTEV

T2 sequence (P22001 whole entry): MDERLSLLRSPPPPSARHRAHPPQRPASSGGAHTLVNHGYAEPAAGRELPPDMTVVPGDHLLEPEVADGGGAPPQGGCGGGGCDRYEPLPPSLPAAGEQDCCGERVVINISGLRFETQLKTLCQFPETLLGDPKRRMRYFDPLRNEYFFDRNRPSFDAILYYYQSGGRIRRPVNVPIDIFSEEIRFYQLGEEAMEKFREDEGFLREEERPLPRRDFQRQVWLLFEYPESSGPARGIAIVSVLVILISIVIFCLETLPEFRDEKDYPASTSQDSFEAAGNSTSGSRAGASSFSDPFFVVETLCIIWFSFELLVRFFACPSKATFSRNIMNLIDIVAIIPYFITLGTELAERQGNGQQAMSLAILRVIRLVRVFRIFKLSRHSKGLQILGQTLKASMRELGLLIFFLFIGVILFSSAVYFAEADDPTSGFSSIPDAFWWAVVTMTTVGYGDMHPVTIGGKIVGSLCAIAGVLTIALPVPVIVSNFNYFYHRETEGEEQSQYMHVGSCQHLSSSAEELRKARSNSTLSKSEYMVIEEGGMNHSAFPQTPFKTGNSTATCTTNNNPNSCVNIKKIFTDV
T1 sequence (P22001 whole entry): as above
Rat whole blood, sequence (P15384 whole entry): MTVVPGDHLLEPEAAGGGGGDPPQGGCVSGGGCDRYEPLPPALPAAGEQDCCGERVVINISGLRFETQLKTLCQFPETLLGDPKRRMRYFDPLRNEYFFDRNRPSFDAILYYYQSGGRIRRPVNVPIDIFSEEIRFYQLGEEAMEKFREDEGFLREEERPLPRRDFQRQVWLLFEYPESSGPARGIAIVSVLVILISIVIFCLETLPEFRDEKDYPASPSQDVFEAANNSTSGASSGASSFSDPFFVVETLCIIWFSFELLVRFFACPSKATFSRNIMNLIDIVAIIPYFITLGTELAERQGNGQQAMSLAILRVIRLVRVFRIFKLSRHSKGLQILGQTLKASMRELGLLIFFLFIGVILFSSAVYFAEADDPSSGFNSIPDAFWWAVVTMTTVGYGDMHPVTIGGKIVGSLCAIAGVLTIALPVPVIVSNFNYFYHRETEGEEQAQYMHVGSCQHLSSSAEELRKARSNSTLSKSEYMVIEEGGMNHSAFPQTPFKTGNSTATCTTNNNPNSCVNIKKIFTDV
T3 sequence (P16389 whole entry): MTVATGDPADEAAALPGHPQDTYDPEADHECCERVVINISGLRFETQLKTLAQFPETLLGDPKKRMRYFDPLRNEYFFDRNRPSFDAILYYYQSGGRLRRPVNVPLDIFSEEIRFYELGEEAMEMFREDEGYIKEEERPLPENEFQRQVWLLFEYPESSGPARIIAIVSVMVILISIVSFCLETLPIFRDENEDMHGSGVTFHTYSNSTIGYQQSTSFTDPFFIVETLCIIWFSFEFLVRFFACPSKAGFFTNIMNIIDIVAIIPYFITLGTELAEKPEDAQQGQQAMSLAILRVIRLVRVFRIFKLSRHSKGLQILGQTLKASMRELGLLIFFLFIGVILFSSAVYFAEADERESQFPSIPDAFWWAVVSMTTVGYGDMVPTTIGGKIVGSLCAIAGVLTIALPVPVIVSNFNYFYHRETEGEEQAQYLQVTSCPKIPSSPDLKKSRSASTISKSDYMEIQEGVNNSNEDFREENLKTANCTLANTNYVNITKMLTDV

SMILES	IC50 [1] [nM]	IC50 [2] [nM]	IC50 [3] [nM]	IC50 [4] [nM]	IC50 [5] [nM]
CC[C@H](C)[C@@H]1NC(=O)[C@H](C)NC(=O)[C@H](CCCCN)NC(=O)[C@H](CC(C)C)NC(=O)[C@@H]2CSSC[C@@H](C(=O)N[C@@H](Cc3ccc(O)cc3)C(=O)N3CCC[C@H]3C(=O)N[C@@H](CCCNC(=N)N)C(N)=O)NC(=O)[C@H](CCCCN)NC(=O)[C@@H]3CSSC[C@H](NC(=O)[C@H](CCC(=O)O)NC(=O)[C@H](C(C)C)NC(=O)[C@H](CO)NC(=O)[C@H](C)NC(=O)[C@H](CO)NC(=O)[C@@H](NC(=O)[C@H](CCCNC(=N)N)NC(=O)[C@H](CCSC)NC(=O)[C@H](CC(=O)O)NC(=O)[C@H](CCSC)NC(=O)[C@@H](N)CC(N)=O)CSSC[C@H](NC(=O)[C@H](CCCCN)NC(=O)CNC(=O)[C@H](Cc4ccccc4)NC(=O)[C@H]([C@@H](C)CC)NC(=O)[C@H](CO)NC(=O)CNC1=O)C(=O)N[C@@H](CCSC)C(=O)N[C@@H](CC(N)=O)C(=O)N[C@@H](CCCCN)C(=O)N[C@@H](CCCCN)C(=O)N3)C(=O)N[C@@H](CCCCN)C(=O)N[C@@H](CC(C)C)C(=O)N[C@@H](CCCCN)C(=O)N2 [Compound 32] (H-NMDMRCSASVECKLKCLKAIGSIFGKCMNKKCKCYPR-NH2; disulfide 6-27, 12-32, 16-34)	0.12	0.38	≤ 1	–	–
CCCC[C@@H]1NC(=O)[C@@H]2CSSC[C@H](NC(=O)[C@H](CCCNC(=N)N)NC(=O)[C@H](CCCC)NC(=O)[C@H](CC(=O)O)NC(=O)[C@H](CCCC)NC(=O)[C@@H](N)Cc3c[nH]cn3)C(=O)N[C@@H](CO)C(=O)N[C@@H](C)C(=O)N[C@@H](CO)C(=O)N[C@@H](C(C)C)C(=O)N[C@@H](CCC(=O)O)C(=O)N[C@H]3CSSC[C@H](NC(=O)[C@H](CCCCN)NC(=O)[C@H](CCCCN)NC(=O)[C@H](CC(N)=O)NC1=O)C(=O)N[C@@H](CCCCN)C(=O)N[C@H](C(=O)N[C@@H](Cc1ccc(O)cc1)C(=O)N1CCC[C@H]1C(=O)N[C@@H](CCCNC(=N)N)C(N)=O)CSSC[C@H](NC(=O)[C@H](CCCCN)NC(=O)[C@H](CCC(N)=O)NC(=O)[C@H](CCCCN)NC3=O)C(=O)N[C@@H](CC(C)C)C(=O)N[C@@H](CCCCN)C(=O)N[C@@H](C)C(=O)N[C@@H]([C@@H](C)CC)C(=O)NCC(=O)N[C@@H](CO)C(=O)N[C@@H]([C@@H](C)CC)C(=O)N[C@@H](Cc1ccccc1)C(=O)NCC(=O)N[C@@H](CCCCN)C(=O)N2 [Compound 64] (H-H[Nle]D[Nle]RCSASVECKQKCLKAIGSIFGKC[Nle]NKKCKCYPR-NH2; disulfide 6-27, 12-32, 16-34)	0.12	0.25	–	–	–
CCCC[C@@H]1NC(=O)[C@@H]2CSSC[C@H](NC(=O)[C@H](CCCNC(=N)N)NC(=O)[C@H](CCCC)NC(=O)[C@H](CC(=O)O)NC(=O)[C@H](CCCC)NC(=O)[C@@H](N)Cc3ccc(O)cc3)C(=O)N[C@@H](CO)C(=O)N[C@@H](C)C(=O)N[C@@H](CO)C(=O)N[C@@H](C(C)C)C(=O)N[C@@H](CCC(=O)O)C(=O)N[C@H]3CSSC[C@H](NC(=O)[C@H](CCCCN)NC(=O)[C@H](CCCCN)NC(=O)[C@H](CC(N)=O)NC1=O)C(=O)N[C@@H](CCCCN)C(=O)N[C@H](C(=O)N[C@@H](Cc1ccc(O)cc1)C(=O)N1CCC[C@H]1C(=O)N[C@@H](CCCNC(=N)N)C(N)=O)CSSC[C@H](NC(=O)[C@H](CCCCN)NC(=O)[C@H](CCC(N)=O)NC(=O)[C@H](CCCCN)NC3=O)C(=O)N[C@@H](CC(C)C)C(=O)N[C@@H](CCCCN)C(=O)N[C@@H](C)C(=O)N[C@@H]([C@@H](C)CC)C(=O)NCC(=O)N[C@@H](CO)C(=O)N[C@@H]([C@@H](C)CC)C(=O)N[C@@H](Cc1ccccc1)C(=O)NCC(=O)N[C@@H](CCCCN)C(=O)N2 [Compound 65] (H-Y[Nle]D[Nle]RCSASVECKQKCLKAIGSIFGKC[Nle]NKKCKCYPR-NH2; disulfide 6-27, 12-32, 16-34)	0.12	0.14	–	–	–
CCCC[C@@H]1NC(=O)[C@@H]2CSSC[C@H](NC(=O)[C@H](CCCNC(=N)N)NC(=O)[C@H](CCCC)NC(=O)[C@H](CC(=O)O)NC(=O)[C@H](CCCC)NC(=O)[C@@H](N)CO)C(=O)N[C@@H](CO)C(=O)N[C@@H](C)C(=O)N[C@@H](CO)C(=O)N[C@@H](C(C)C)C(=O)N[C@@H](CCC(=O)O)C(=O)N[C@H]3CSSC[C@H](NC(=O)[C@H](CCCCN)NC(=O)[C@H](CCCCN)NC(=O)[C@H](CC(N)=O)NC1=O)C(=O)N[C@@H](CCCCN)C(=O)N[C@H](C(=O)N[C@@H](Cc1ccc(O)cc1)C(=O)N1CCC[C@H]1C(=O)N[C@@H](CCCNC(=N)N)C(N)=O)CSSC[C@H](NC(=O)[C@H](CCCCN)NC(=O)[C@H](CCC(N)=O)NC(=O)[C@H](CCCCN)NC3=O)C(=O)N[C@@H](CC(C)C)C(=O)N[C@@H](CCCCN)C(=O)N[C@@H](C)C(=O)N[C@@H]([C@@H](C)CC)C(=O)NCC(=O)N[C@@H](CO)C(=O)N[C@@H]([C@@H](C)CC)C(=O)N[C@@H](Cc1ccccc1)C(=O)NCC(=O)N[C@@H](CCCCN)C(=O)N2 [Compound 66] (H-S[Nle]D[Nle]RCSASVECKQKCLKAIGSIFGKC[Nle]NKKCKCYPR-NH2; disulfide 6-27, 12-32, 16-34)	0.12	0.18	≤ 1	–	–
CCCC[C@@H]1NC(=O)[C@@H]2CSSC[C@H](NC(=O)[C@H](CCCNC(=N)N)NC(=O)[C@H](CCCC)NC(=O)[C@H](CC(=O)O)NC(=O)[C@H](CCCC)NC(=O)[C@@H](N)C(C)C)C(=O)N[C@@H](CO)C(=O)N[C@@H](C)C(=O)N[C@@H](CO)C(=O)N[C@@H](C(C)C)C(=O)N[C@@H](CCC(=O)O)C(=O)N[C@H]3CSSC[C@H](NC(=O)[C@H](CCCCN)NC(=O)[C@H](CCCCN)NC(=O)[C@H](CC(N)=O)NC1=O)C(=O)N[C@@H](CCCCN)C(=O)N[C@H](C(=O)N[C@@H](Cc1ccc(O)cc1)C(=O)N1CCC[C@H]1C(=O)N[C@@H](CCCNC(=N)N)C(N)=O)CSSC[C@H](NC(=O)[C@H](CCCCN)NC(=O)[C@H](CCC(N)=O)NC(=O)[C@H](CCCCN)NC3=O)C(=O)N[C@@H](CC(C)C)C(=O)N[C@@H](CCCCN)C(=O)N[C@@H](C)C(=O)N[C@@H]([C@@H](C)CC)C(=O)NCC(=O)N[C@@H](CO)C(=O)N[C@@H]([C@@H](C)CC)C(=O)N[C@@H](Cc1ccccc1)C(=O)NCC(=O)N[C@@H](CCCCN)C(=O)N2 [Compound 67] (H-V[Nle]D[Nle]RCSASVECKQKCLKAIGSIFGKC[Nle]NKKCKCYPR-NH2; disulfide 6-27, 12-32, 16-34)	0.12	0.32	≤ 1	–	–
CCCC[C@H](NC(=O)[C@H](CC(=O)O)NC(=O)[C@H](CCCC)NC(=O)[C@@H](N)CO)C(=O)N[C@@H](CCCNC(=N)N)C(=O)N[C@H]1CSSC[C@@H]2NC(=O)[C@H](CCCCN)NC(=O)CNC(=O)[C@H](Cc3ccccc3)NC(=O)[C@H]([C@@H](C)CC)NC(=O)[C@H](CO)NC(=O)CNC(=O)[C@H]([C@@H](C)CC)NC(=O)[C@H](C)NC(=O)[C@H](C)NC(=O)[C@H](CC(C)C)NC(=O)[C@@H]3CSSC[C@@H](C(=O)N[C@@H](Cc4ccc(O)cc4)C(=O)N4CCC[C@H]4C(=O)N[C@@H](CCCNC(=N)N)C(N)=O)NC(=O)[C@H](CCCCN)NC(=O)[C@H](CSSC[C@H](NC(=O)[C@H](CCC(=O)O)NC(=O)[C@H](C(C)C)NC(=O)[C@H](CO)NC(=O)[C@H](C)NC(=O)[C@H](CO)NC1=O)C(=O)N[C@@H](C)C(=O)N[C@@H](CCC(N)=O)C(=O)N[C@@H](CCCCN)C(=O)N3)NC(=O)[C@H](CCCCN)NC(=O)[C@H](CCCCN)NC(=O)[C@H](CC(N)=O)NC(=O)[C@H](CCSC)NC2=O [Compound 80] (H-S[Nle]D[Nle]RCSASVECAQKCLAAIGSIFGKCMNKKCKCYPR-NH2; disulfide 6-27, 12-32, 16-34)	0.15	0.16	–	–	–
CC[C@H](C)[C@@H]1NC(=O)[C@@H](NC(=O)[C@H](CO)NC(=O)[C@@H](N)CCCNC(=N)N)CSSC[C@@H](C(=O)O)NC(=O)[C@H]([C@@H](C)O)NC(=O)CNC(=O)[C@@H]2CSSC[C@@H]3NC(=O)[C@H](CCC(N)=O)NC(=O)[C@H](Cc4ccccc4)NC(=O)[C@H](C)NC(=O)[C@H]([C@@H](C)O)NC(=O)[C@H](CSSC[C@H](NC(=O)[C@H](Cc4ccccc4)NC(=O)[C@H](CO)NC(=O)[C@H](CC(C)C)NC(=O)[C@H](CCCNC(=N)N)NC(=O)[C@H](Cc4ccc(O)cc4)NC(=O)[C@H](CCCCN)NC(=O)[C@H](CCSC)NC(=O)[C@H](CO)NC(=O)[C@H](Cc4cnc[nH]4)NC(=O)[C@H](CCCCN)NC3=O)C(=O)N[C@@H](CCCNC(=N)N)C(=O)N[C@@H](CCCCN)C(=O)N[C@@H]([C@@H](C)O)C(=O)N2)NC(=O)[C@H](CCCNC(=N)N)NC(=O)[C@H](CO)NC(=O)[C@H](CCCCN)NC(=O)[C@@H]2CCCN2C(=O)[C@H]([C@@H](C)CC)NC(=O)[C@H]([C@@H](C)O)NC(=O)[C@H](CC(=O)O)NC1=O [ShK, reference compound]	–	–	–	11	0.19
